From ChEMBL document CHEMBL3046165, “Synthesis of new cyclic imides derivatives with potential hypolipidemic activity” (Med Chem Res, 2012)

Tests used:
[1] = tested on: Rattus norvegicus; test: Toxicity in triton WR-1339-induced Rattus norvegicus albino Wistar (rat) hyperlipidemic model assessed as increase of serum total cholesterol level at 150 mg/kg, po qd after 24 hr; format: organism-based; set-up: dose 150 mg/kg, route oral; settings: in vivo
[2] = tested on: Rattus norvegicus; test: Toxicity in triton WR-1339-induced Rattus norvegicus albino Wistar (rat) hyperlipidemic model assessed as increase of serum total triglyceride level at 150 mg/kg, po qd after 24 hr; format: organism-based; set-up: dose 150 mg/kg, route oral; settings: in vivo
[3] = tested on: Rattus norvegicus; test: Toxicity in triton WR-1339-induced Rattus norvegicus albino Wistar (rat) hyperlipidemic model assessed as reduction of serum HDL level at 150 mg/kg, po qd after 24 hr; format: organism-based; set-up: dose 150 mg/kg, route oral; settings: in vivo
[4] = tested on: Rattus norvegicus; test: Toxicity in triton WR-1339-induced Rattus norvegicus albino Wistar (rat) hyperlipidemic model assessed as increase of serum LDL level at 150 mg/kg, po qd after 24 hr; format: organism-based; set-up: dose 150 mg/kg, route oral; settings: in vivo
[5] = tested on: Rattus norvegicus; test: Hypolipidemic activity in triton WR-1339-induced Rattus norvegicus albino Wistar (rat) hyperlipidemic model assessed as reduction of serum total triglyceride level at 150 mg/kg, po qd after 24 hr; format: functional; set-up: scale not given: the % may be the effect or the level left
[6] = tested on: Rattus norvegicus; test: Hypolipidemic activity in triton WR-1339-induced Rattus norvegicus albino Wistar (rat) hyperlipidemic model assessed as reduction of serum total cholesterol level at 150 mg/kg, po qd after 24 hr; format: functional; set-up: scale not given: the % may be the effect or the level left
[7] = tested on: Rattus norvegicus; test: Hypolipidemic activity in triton WR-1339-induced Rattus norvegicus albino Wistar (rat) hyperlipidemic model assessed as increase of serum HDL level at 150 mg/kg, po qd after 24 hr; format: functional

Compound | Activity [1] | Activity [2] | Activity [3] | Activity [4] [%] | Activity [5] [%] | Activity [6] [%] | Activity [7] [%]
CC(C(=O)NCc1ccccc1)N1C(=O)c2ccccc2C1=O (centres undefined) | Toxic | Toxic | Toxic | 35.5 |  |  | 
CC(C(=O)Nc1ccccc1)N1C(=O)c2ccccc2C1=O (centres undefined) |  |  |  |  | <24 | <24 | 
CCNC(=O)C(C)N1C(=O)c2ccccc2C1=O (centres undefined) | Toxic | Toxic | Toxic | 35.5 |  |  | 
CCCNC(=O)C(C)N1C(=O)c2ccccc2C1=O (centres undefined) | Toxic | Toxic | Toxic | 35.5 |  |  | 
CC(C)NC(=O)C(C)N1C(=O)c2ccccc2C1=O (centres undefined) | Toxic | Toxic | Toxic | 35.5 |  |  | 
CC(C(=O)NCCc1ccccc1)N1C(=O)c2ccccc2C1=O (centres undefined) | Toxic | Toxic | Toxic | 35.5 |  |  | 
CC(C(=O)N1CCCC1)N1C(=O)c2ccccc2C1=O (centres undefined) | Toxic | Toxic | Toxic | 35.5 |  |  | 
CCNC(=O)C(C)N1C(=O)c2cccc3cccc(c23)C1=O (centres undefined) |  |  |  | 4.5 |  |  | 29.3
CC(C(=O)Nc1ccccc1)N1C(=O)c2cccc3cccc(c23)C1=O (centres undefined) |  |  |  | 4.5 |  |  | 29.3
CC(C(=O)NCc1ccccc1)N1C(=O)c2cccc3cccc(c23)C1=O (centres undefined) |  |  |  | 4.5 |  |  | 29.3
CC(C(=O)NCc1ccccc1)n1c(=O)c2ccccc2c2ccccc2c1=O (centres undefined) |  |  |  | 4.5 |  |  | 29.3
CCNC(=O)c1ccccc1C(=O)NC(C)C(=O)NCC (centres undefined) |  |  |  |  | 46.5 | 48.6 | 
CC(C)OC(=O)C(C)(C)Oc1ccc(C(=O)c2ccc(Cl)cc2)cc1 [FENOFIBRATE] |  |  |  | 13 | 20 | 23 | 
